Reference: patent US20240245658A1, “TAAR1 AND SEROTONIN MODULATORS, AND PHARMACEUTICAL COMPOSITIONS, AND METHODS OF USE THEREOF” (Sunovion Pharmaceuticals Inc., priority 2021, published 2024)
Like-named read-outs stand apart in the source and are kept apart here.

Experiments:
Type in all cases: cell-based
human TAAR1 receptors = target: T1, human TAAR1 receptors (Homo sapiens, UniProt Q96RJ0); experiment: TAAR1 Agonism Assay: cAMP HTRF assay for Gs coupled receptor TAAR1 (Euroscreen FAST-0987C); conditions: CHO-K1 cells expressing human TAAR1, cAMP HTRF
T1 construct: host or cells: CHO-K1
T1 sequence (Q96RJ0 1-339): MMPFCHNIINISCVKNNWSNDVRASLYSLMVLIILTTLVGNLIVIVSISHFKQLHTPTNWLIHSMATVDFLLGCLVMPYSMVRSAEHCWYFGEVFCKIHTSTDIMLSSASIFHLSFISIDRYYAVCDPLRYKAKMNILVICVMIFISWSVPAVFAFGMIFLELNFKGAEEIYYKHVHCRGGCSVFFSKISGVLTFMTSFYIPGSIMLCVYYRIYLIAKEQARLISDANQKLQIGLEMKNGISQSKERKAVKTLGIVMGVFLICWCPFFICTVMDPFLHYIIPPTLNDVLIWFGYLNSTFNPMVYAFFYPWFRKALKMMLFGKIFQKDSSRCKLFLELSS
How it was run: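 cAMP accumulation detected by HTRF fluorescence ratio, reagents added in lysis buffer and incubated 1 h at about room temperature. Beforehand, cells (about 3,000 per well) sat with test compound at ten concentrations from 0.3 to 10,000 nM in duplicate for roughly 30 min at about room temperature; tyramine dose-response run alongside.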

human 5-HT7 receptor = target: T2, human 5-HT7 receptor (Homo sapiens, UniProt P34969); experiment: 5HT7 Antagonism Assay (Euroscreen FAST-0499C), cAMP HTRF; conditions: CHO-K1 cells expressing human 5-HT7, reference agonist at EC80, cAMP HTRF
T2 construct: host or cells: CHO-K1
How it was run: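 CHO-K1 cells expressing human 5-HT7, 3000 per well in Krebs-Ringer HEPES with 1 mM IBMX, were exposed for 30 minutes at room temperature to compound plus reference agonist at its EC80. cAMP was read by HTRF after 1 hour; compounds were tested in duplicate from 0.3 to 10,000 nM.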

human 5-HT2A receptor = target: T3, human 5-HT2A receptor (Homo sapiens, UniProt P28223); experiment: 5HT2A Antagonism Assay (Euroscreen FAST-05051), IP-One HTRF
T3 construct: host or cells: CHO-K1
How it was run: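 CHO-K1 cells expressing receptor, 20,000/well, co-incubated with test compound and reference agonist at its EC80 for 60 min at 37 °C. IP1 accumulation read by HTRF after ~1 h detection at room temperature. Compounds tested in duplicate at 0.3–10,000 nM.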

[1] = 5-HT2A (IC50), CHO-K1 cells expressing human 5-HT2A, reference agonist at EC80, IP-One
[2] = read-out: 5-HT2A (IC50), CHO-K1 cells expressing human 5-HT2A, reference agonist at EC80, IP-One

T2 sequence (P34969 whole entry): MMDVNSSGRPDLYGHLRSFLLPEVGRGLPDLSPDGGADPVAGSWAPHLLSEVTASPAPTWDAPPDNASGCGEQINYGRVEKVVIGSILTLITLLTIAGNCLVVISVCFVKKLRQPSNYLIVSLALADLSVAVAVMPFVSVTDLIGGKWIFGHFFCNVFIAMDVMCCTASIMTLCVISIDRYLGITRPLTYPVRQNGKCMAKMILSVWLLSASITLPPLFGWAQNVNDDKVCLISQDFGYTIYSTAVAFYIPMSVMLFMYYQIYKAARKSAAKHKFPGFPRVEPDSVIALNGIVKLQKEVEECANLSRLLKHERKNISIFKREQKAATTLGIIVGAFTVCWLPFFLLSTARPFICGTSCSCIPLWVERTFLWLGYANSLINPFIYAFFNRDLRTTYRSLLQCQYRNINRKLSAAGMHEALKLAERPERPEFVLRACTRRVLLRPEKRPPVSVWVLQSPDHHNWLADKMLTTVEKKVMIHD
T3 sequence (P28223 whole entry): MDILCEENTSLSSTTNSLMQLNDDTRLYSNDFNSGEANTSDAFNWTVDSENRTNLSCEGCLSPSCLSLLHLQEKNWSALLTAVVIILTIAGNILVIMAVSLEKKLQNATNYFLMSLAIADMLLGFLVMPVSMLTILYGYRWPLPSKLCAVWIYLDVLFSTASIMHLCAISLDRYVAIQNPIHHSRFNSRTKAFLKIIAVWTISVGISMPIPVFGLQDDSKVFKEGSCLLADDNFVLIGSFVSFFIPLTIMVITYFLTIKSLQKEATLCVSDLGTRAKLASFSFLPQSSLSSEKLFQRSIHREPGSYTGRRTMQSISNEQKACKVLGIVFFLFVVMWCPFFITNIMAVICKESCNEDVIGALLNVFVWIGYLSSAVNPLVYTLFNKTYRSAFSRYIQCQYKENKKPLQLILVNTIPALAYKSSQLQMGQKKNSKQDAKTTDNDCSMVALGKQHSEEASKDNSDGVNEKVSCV

SMILES | EC50 (human TAAR1 receptors) [nM] | IC50 (human 5-HT7 receptor) [µM] | IC50 (human 5-HT2A receptor; [1]) [nM] | IC50 (human 5-HT2A receptor; [2]) [nM]
NCC1Cc2ccc(Cl)cc2Oc2cccnc21 (single isomer, unassigned) [Compound 124, (S*)-(7-chloro-10,11-dihydrobenzo[6,7]oxepino[3,2-b]pyridin-11-yl)methanamine] | < 1000 | ≥ 10 | 1000 to 10000 | 
NCC1Cc2ccc(Cl)cc2Oc2cccnc21 (single isomer, unassigned) [Compound 125, (R*)-(7-chloro-10,11-dihydrobenzo[6,7]oxepino[3,2-b]pyridin-11-yl)methanamine] | < 1000 | ≥ 10 | > 10000 | 
CNCC1Cc2ccc(Cl)cc2Oc2cccnc21 (single isomer, unassigned) [Compound 126, (S*)-(7-chloro-10,11-dihydrobenzo[6,7]oxepino[3,2-b]pyridin-11-yl)-N-methylmethanamine] | < 1000 | ≥ 10 | < 1000 | 
CNCC1Cc2ccc(Cl)cc2Oc2cccnc21 (single isomer, unassigned) [Compound 127, (R*)-(7-chloro-10,11-dihydrobenzo[6,7]oxepino[3,2-b]pyridin-11-yl)-N-methylmethanamine] | < 1000 | 1 to 10 |  | < 1000
Cc1ccc2c(c1)CC(CN)c1ncccc1O2 (single isomer, unassigned) [Compound 128, (S*)-(8-methyl-10,11-dihydrobenzo[6,7]oxepino[3,2-b]pyridin-11-yl)methanamine] | < 1000 | 1 to 10 | 1000 to 10000 | 
Cc1ccc2c(c1)CC(CN)c1ncccc1O2 (single isomer, unassigned) [Compound 129, (R*)-(8-methyl-10,11-dihydrobenzo[6,7]oxepino[3,2-b]pyridin-11-yl)methanamine] | < 1000 | < 1 | < 1000 | 
CNCC1Cc2cc(C)ccc2Oc2cccnc21 (single isomer, unassigned) [Compound 130, (S*)—N-methyl-1-(8-methyl-10,11-dihydrobenzo[6,7]oxepino[3,2-b]pyridin-11-yl)methanamine] | < 1000 | 1 to 10 | < 1000 | 
CNCC1Cc2cc(C)ccc2Oc2cccnc21 (single isomer, unassigned) [Compound 131, (R*)—N-methyl-1-(8-methyl-10,11-dihydrobenzo[6,7]oxepino[3,2-b]pyridin-11-yl)methanamine] | < 1000 | < 1 |  | < 1000
Cc1ccc2c(c1)Oc1cccnc1C(CN)C2 (single isomer, unassigned) [Compound 132, (S*)-(7-methyl-10,11-dihydrobenzo[6,7]oxepino[3,2-b]pyridin-11-yl)methanamine] | < 1000 | ≥ 10 | > 10000 | 
Cc1ccc2c(c1)Oc1cccnc1C(CN)C2 (single isomer, unassigned) [Compound 133, (R*)-(7-methyl-10,11-dihydrobenzo[6,7]oxepino[3,2-b]pyridin-11-yl)methanamine] | < 1000 | ≥ 10 | 1000 to 10000 | 
CNCC1Cc2ccc(C)cc2Oc2cccnc21 (single isomer, unassigned) [Compound 134, (S*)—N-methyl-1-(7-methyl-10,11-dihydrobenzo[6,7]-oxepino[3,2-b]pyridin-11-yl)methanamine] | < 1000 | 1 to 10 | < 1000 | 
CNCC1Cc2ccc(C)cc2Oc2cccnc21 (single isomer, unassigned) [Compound 135, (R*)—N-methyl-1-(7-methyl-10,11-dihydrobenzo[6,7]oxepino[3,2-b]pyridin-11-yl)methanamine] | < 1000 | 1 to 10 |  | < 1000
NCC1Cc2c(F)cccc2Oc2cccnc21 (single isomer, unassigned) [Compound 136, (S*)-(9-fluoro-10,11-dihydrobenzo[6,7]oxepino[3,2-b]pyridin-11-yl)methanamine] | < 1000 | ≥ 10 | 1000 to 10000 | 
NCC1Cc2c(F)cccc2Oc2cccnc21 (single isomer, unassigned) [Compound 137, (R*)-(9-fluoro-10,11-dihydrobenzo[6,7]oxepino[3,2-b]pyridin-11-yl)methanamine] | < 1000 | ≥ 10 | > 10000 | 
CNCC1Cc2c(F)cccc2Oc2cccnc21 (single isomer, unassigned) [Compound 138, (S*)-1-(9-fluoro-10,11-dihydrobenzo[6,7]oxepino[3,2-b]pyridin-11-yl)-N-methylmethanamine] | < 1000 | ≥ 10 | < 1000 | 
Cc1cccc2c1CC(CN)c1ncccc1O2 (single isomer, unassigned) [Compound 140, (S*)-(9-methyl-10,11-dihydrobenzo[6,7]oxepino[3,2-b]pyridin-11-yl)methanamine] | < 1000 | ≥ 10 | > 10000 | 
Cc1cccc2c1CC(CN)c1ncccc1O2 (single isomer, unassigned) [Compound 141, (R*)-(9-methyl-10,11-dihydrobenzo[6,7]oxepino[3,2-b]pyridin-11-yl)methanamine] | < 1000 | ≥ 10 | < 1000 | 
CNCC1Cc2c(C)cccc2Oc2cccnc21 (single isomer, unassigned) [Compound 143, (R*)-(9-methyl-10,11-dihydrobenzo[6,7]oxepino[3,2-b]pyridin-11-yl)-N-methylmethanamine] | < 1000 | ≥ 10 | < 1000 | 
NCC1Cc2c(Cl)cccc2Oc2cccnc21 (single isomer, unassigned) [Compound 144, (S*)-(9-chloro-10,11-dihydrobenzo[6,7]oxepino[3,2-b]pyridin-11-yl)methanamine] | < 1000 | ≥ 10 | < 1000 | 
NCC1Cc2c(Cl)cccc2Oc2cccnc21 (single isomer, unassigned) [Compound 145, (R*)-(9-chloro-10,11-dihydrobenzo[6,7]oxepino[3,2-b]pyridin-11-yl)methanamine] | < 1000 | ≥ 10 |  | < 1000
CNCC1Cc2c(Cl)cccc2Oc2cccnc21 (single isomer, unassigned) [Compound 147, (R*)-(9-chloro-10,11-dihydrobenzo[6,7]oxepino[3,2-b]pyridin-11-yl)-N-methylmethanamine] | < 1000 | ≥ 10 | < 1000 | 
Cc1ccc2c(n1)C(CN)Cc1ccccc1O2 (single isomer, unassigned) [Compound 149, (R*)-(2-methyl-10,11-dihydrobenzo[6,7]oxepino[3,2-b]pyridin-11-yl)methanamine] | < 1000 | ≥ 10 | < 1000 | 
CNCC1Cc2ccccc2Oc2ccc(C)nc21 (single isomer, unassigned) [Compound 150, (R*)-(2-methyl-10,11-dihydrobenzo[6,7]oxepino[3,2-b]pyridin-11-yl)-N-methylmethanamine] | < 1000 | 1 to 10 | < 1000 | 
CCc1ccc2c(n1)C(CN)Cc1ccccc1O2 (single isomer, unassigned) [Compound 151, (R*)-(2-ethyl-10,11-dihydrobenzo[6,7]oxepino[3,2-b]pyridin-11-yl)methanamine] | < 1000 | ≥ 10 | < 1000 | 
